Literature values in patent US20150196488A1, “Topical Foam Composition” (priority 2009, published 2015).

Settings: alcohol, ethyl acetate, chloroform and toluene

solubility in organic solvents: soluble
SMILES: CO[C@H]1/C=C/O[C@@]2(C)Oc3c(C)c(O)c4c(O)c(c5c(nc6cc(C)ccn65)c4c3C2=O)NC(=O)/C(C)=C\C=C\[C@H](C)[C@H](O)[C@@H](C)[C@@H](O)[C@@H](C)[C@H](OC(C)=O)[C@@H]1C [Rifaximin, (2S,16Z,18E,20S,21S,22R,23R,24R,25S,26S,27S,28E)-5,6,21,23,25-pentahydroxy-27-methoxy-2,4,11,16,20,22,24,26-octamethyl-2,7-(epoxypentadeca-[1,11,13]trienimino)benzofuro[4,5-e]pyrido[1,2-a]-benzimida-zole-1,15(2H)-dione,25-acetate]
